From patent US9663478B2, “Benzotriazine oxides as drugs targeting Mycobacterium tuberculosis” (priority 2011, dated 2017)
≈ marks a conversion by molar mass, not a printed value. Like-named read-outs stand apart in the source and are kept apart here.

Columns and labels:
[1] = test system: Enterococcus fecalis ATCC 29212; assay: Spectrum of antimicrobial activity; type: cell-based
[2] = test system: Salmonella typhimurium tester strain TA100; assay: Salmonella/microsome plate incorporation assay (Ames screen), TA100; type: cell-based
Text: A liability in developing any bioreductively-activated antimicrobial drug is the potential for mutagenicity. Because the basis for activity of these compounds is the generation of intermediate radical species, undesirable mutagenicity poses a risk, as has been documented for many classes of bioreductive drugs, including the BTO tirapazamine (TPZ).^19,20 The most convenient methodology for assessing the potential to induce genetic damage is to use the plate incorporation method with Salmonella typhimurium strains TA98 and TA100, commonly known as the Ames assay. The Salmonella tester strains have mutations in the histidine operon, a mutation that leads to defective lipopolysaccharide (rfa), and a deletion that covers genes involved in the synthesis of biotin (bio) and in the repair of ultraviolet-induced DNA damage (uvrB).^21,22 These mutations make the strains more permeable to many molecules and increase their susceptibility to the mutagenic effects of these molecules. Given that the hypothesized mechanism of the BTO compounds is to selectively form cytotoxic radical species in bacteria over mammalian cells, a microbial mutagenicity assay is not ideal, but was used to benchmark their activities in this assay. […] Individual plate counts and their means and standard deviations, along with the condition of the background lawn, are presented in SI Table 2.
Experimental compounds were screened for microbial mutagenicity activity using the plate incorporation method with Salmonella typhimurium tester strains TA98 and TA100, in the presence and absence of an Aroclor 1254-induced rat-liver metabolic activation system containing 10% S9 (MA). The presence of the appropriate genetic characteristics was verified for the strains used in this study. Stock solutions were made by dissolving each test sample in dimethyl sulfoxide (DMSO) at 5 mg/ml. These initial stock concentrations were then serially diluted to achieve dose formulations of 100, 50, 10, 5, 1, 0.5, and 0.1 μg/plate (dosing volume 100 μl). Test plates were compared with the control plates for their revertant count and for the condition of the background bacterial lawn. A test article was considered a mutagen when the mean number of revertant colonies on the test plates exceeds the mean solvent control counts by at least a two-fold margin. Dose relatedness was also taken into account when evaluating a mutagenic response. Cytotoxicity was estimated by several parameters: a substantial decrease in the number of revertant colonies on the test plates, clearing or absence of the background bacterial lawn growth, formation of pinpoint nonrevertant colonies, or complete absence of bacterial growth.

[3] = Solubility, shake-flask method; type: physicochemical; conditions: 0.9% saline solution at pH 7.4, triplicate
Procedure: The solubility of these two compounds was measured in triplicate using the shake-flask method in a 0.9% saline solution at pH 7.4. Both 8a and 20q had acceptable solubilities of 1.35 mg/mL and 0.28 mg/mL, respectively.
Compounds were ground into a fine powders using a mortar and pestle and added to a 25 mL glass Erlenmeyer flask with 5 mL of a 0.9% saline solution at pH 7.4. Approximately 20 mg of compound was added to each flask to ensure saturation. The flasks were then vigorously stirred using a magnetic stir bar at 25° C. for 48 hours. The samples were then filtered through a Whatman PVDF membrane (0.45 μm pore size) syringe filter. The concentration of compound in the supernatant was then measured using HPLC quantitation at the maximum absorption wavelength for each compound.

[4] = test system: Mtb H37Rv; assay: TB MIC - SRI, resazurin-based microplate assay; type: cell-based, Mycobacterium tuberculosis; conditions: for MIC: Mycobacterium tuberculosis, H37RV
[5] = test system: Salmonella typhimurium -Hisg46 SRI Collection; assay: Spectrum of antimicrobial activity; type: cell-based
[6] = Plasma pharmacokinetics in female mice after oral administration; type: in vivo, mouse; conditions: female mice, oral, 100 mg/kg
Procedure: In order to validate BTOs as a new lead series for the treatment of TB, we also evaluated their systemic exposure in the mouse after oral administration. A single dose (100 mg/kg) of 8a and 20q were administered to mice in order to profile the pharmacokinetics for the BTOs (Table 7). […] The elimination half-life was for each compound was shorter than our ideal target values, but the Tmax values indicate that they are rapidly absorbed after oral administration (FIGURE).
All pharmacokinetic studies were performed in accordance with SRI International's animal care policies in an AAALAC and OLAW accredited facility. The procedure for the pharmacokinetics studies followed a previously described method.^55 Briefly, the plasma pharmacokinetics of selected BTO derivatives were determined in female CD1 mice after administration of a single dose (100 mg/kg) by oral gavage. Blood was collected from three mice per time point at 5, 15, 30, and 60 min and 2, 4, 6, 8, and 24 h after dose administration. Means and standard deviations were calculated for the plasma drug concentrations at each time point. Pharmacokinetic analysis was performed using non compartmental methods (WinNonlin® Professional, Version 5.2, Pharsight Corp, Mountain View, Calif.). The following parameters were calculated: time to maximum plasma concentration (Tmax), maximum plasma concentration (Cmax), maximum plasma concentration extrapoloated to time 0 (C0), area under the plasma concentration-time curve to the last time point (AUClast) and to infinity (AUCinf).

[7] = test system: Escherichia coli BAA 201; assay: Spectrum of antimicrobial activity; type: cell-based
[8] = test system: Vero cells; assay: Cytotoxicity against Vero cells (Cell Titer-Glo); conditions: 72 h; Tables 1-4 and text
[9] = test system: Escherichia coli pKM101 SRI Collection; assay: Spectrum of antimicrobial activity; type: cell-based
[10] = test system: Acinetobacter baumannii BAA 1605; assay: Spectrum of antimicrobial activity; type: cell-based
[11] = test system: Moraxella catarrhalis ATCC 25238; assay: Spectrum of antimicrobial activity; type: cell-based
[12] = TA100, with metabolic activation (10% S9), 0.1 μg per plate
[13] = TA100, with metabolic activation (10% S9), 0.5 μg per plate
[14] = TA100, with metabolic activation (10% S9), 1 μg per plate
[15] = TA100, with metabolic activation (10% S9), 5 μg per plate
[16] = TA100, with metabolic activation (10% S9), 10 μg per plate
[17] = TA100, with metabolic activation (10% S9), 50 μg per plate
[18] = TA100, with metabolic activation (10% S9), 100 μg per plate
[19] = TA100, without metabolic activation, 0.1 μg per plate
[20] = TA100, without metabolic activation, 0.5 μg per plate
[21] = TA100, without metabolic activation, 1 μg per plate
[22] = TA100, without metabolic activation, 5 μg per plate
[23] = TA100, without metabolic activation, 10 μg per plate
[24] = TA100, without metabolic activation, 50 μg per plate
[25] = TA100, without metabolic activation, 100 μg per plate

[O-][n+]1nc(N2CCCC2)[n+]([O-])c2cc3c(cc21)CCC3 [Compound 20q, 3-(pyrrolidin-1-yl)-7,8-dihydro-6H-indeno[5,6-e][1,2,4]triazine 1,4-dioxide]
Antimicrobial activity, Enterococcus fecalis [1]: >32 µg/mL | Mean revertants per plate [2, 12]: 171.5 | Ratio treated/solvent [2, 12]: 1.1 | Mean revertants per plate [2, 13]: 204.0 | Ratio treated/solvent [2, 13]: 1.3 | Mean revertants per plate [2, 14]: 180.5 | Ratio treated/solvent [2, 14]: 1.1 | Mean revertants per plate [2, 15]: 267.0 | Ratio treated/solvent [2, 15]: 1.7 | Mean revertants per plate [2, 16]: 291.5 | Ratio treated/solvent [2, 16]: 1.8 | Mean revertants per plate [2, 17]: 700.5 | Ratio treated/solvent [2, 17]: 4.4 | Mean revertants per plate [2, 18]: 916.0 | Ratio treated/solvent [2, 18]: 5.8 | Mean revertants per plate [2, 19]: 173.0 | Ratio treated/solvent [2, 19]: 1.2 | Mean revertants per plate [2, 20]: 155.0 | Ratio treated/solvent [2, 20]: 1.0 | Mean revertants per plate [2, 21]: 206.0 | Ratio treated/solvent [2, 21]: 1.4 | Mean revertants per plate [2, 22]: 303.0 | Ratio treated/solvent [2, 22]: 2.0 | Mean revertants per plate [2, 23]: 392.0 | Ratio treated/solvent [2, 23]: 2.6 | Mean revertants per plate [2, 24]: 1033.5 | Ratio treated/solvent [2, 24]: 7.0 | Mean revertants per plate [2, 25]: 1468.0 | Ratio treated/solvent [2, 25]: 9.9 | number of revertant colonies, TA100 ([2]; presence and absence of metabolic activation): dose-related increases in the number of revertant colonies | solubility [3]: 0.28 mg/mL (≈ 1030 µM) | MIC ([4]; read-out: MIC, H37Rv, Table 5): 0.62 µg/mL (≈ 2.28 µM) | MIC ([4]; read-out: TB MIC - SRI, Tables 1-4 and text): 0.31 µg/mL (≈ 1.14 µM) | Antimicrobial activity, Mtb H37Rv ([4]; source CSU, SI Table 1): 0.31 µg/mL | Antimicrobial activity, Salmonella typhimurium -Hisg46 [5]: >32 µg/mL | AUCinf [6]: 11248 ng·h/mL | AUClast [6]: 11219 ng·h/mL | Cmax [6]: 9767 ng/mL | Tmax [6]: 15 min | t1/2 [6]: 1.9 h | Antimicrobial activity, Escherichia coli [7]: >32 µg/mL | Vero Tox CC50 [8]: 25 µg/mL | Antimicrobial activity, Escherichia coli pKM101 [9]: >32 μg/mL | Antimicrobial activity, Acinetobacter baumannii [10]: >32 µg/mL | Antimicrobial activity, Moraxella catarrhalis [11]: 10 µg/mL
